Assays:
[1] = test system: late watergrass; test: Test Example 1: herbicidal activity, application before weed generation under submerged conditions (Table 16, symbol A); assay type: in vivo, late watergrass (Echinochloa oryzicola); details: 320 g/ha applied herbicide
Procedure, shortened: (§1)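 Alluvial soil was flooded to 4 cm depth, weed seeds were sown mixed and 2.5-leaf rice seedlings were transplanted. On sowing day, the compound's emulsion, diluted in water to a set dose, was applied to the water surface. Plants grew at 25–30 °C and were scored 0–5 after three weeks.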

[2] = test system: Japanese bulrush; test: Test Example 1: herbicidal activity, application before weed generation under submerged conditions (Table 16, symbol B); assay type: in vivo, Japanese bulrush (Schoenoplectus juncoides); details: 320 g/ha applied herbicide
Procedure, shortened: as §1

[3] = test system: oval-leafed pondweed; test: Test Example 1: herbicidal activity, application before weed generation under submerged conditions (Table 16, symbol C); assay type: in vivo, oval-leafed pondweed (Monochoria vaginalis); details: 320 g/ha applied herbicide
Procedure, shortened: as §1

[4] = test system: barnyard grass; test: Test Example 3: herbicidal effect by foliage application, Wagner pot (Table 18, symbol H); assay type: in vivo, barnyard grass (Echinochloa crus-galli); details: amount of applied herbicide 320 g/ha
Procedure, shortened: (§2)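 Plants were sown in alluvial soil held under 0.1–0.5 cm standing water and grown 14 days in a greenhouse at 25–30 °C. An emulsifiable formulation, water-diluted to the set dose, was then sprayed onto the foliage, and effects were scored three weeks later using previously defined criteria.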

[5] = test system: Chinese sprangletop; test: Test Example 3: herbicidal effect by foliage application, Wagner pot (Table 18, symbol D); assay type: in vivo, chinese sprangletop (Leptochloa chinensis); details: amount of applied herbicide 320 g/ha
Procedure, shortened: as §2

[6] = test system: rice flat sedge; test: Test Example 3: herbicidal effect by foliage application, Wagner pot (Table 18, symbol E); assay type: in vivo, rice flat sedge (Cyperus iria); details: amount of applied herbicide 320 g/ha
Procedure, shortened: as §2

[7] = test system: southern crabgrass; test: Test Example 4: herbicidal effect by soil treatment (Table 19, symbol F); assay type: in vivo, southern crabgrass (Digitaria ciliaris); details: amount of applied herbicide 320 g/ha
Procedure, shortened: (§3)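 Seeds were sown in sterilized diluvial soil and covered with about 1.5 cm of soil. An emulsion formulation diluted with water to a predetermined herbicide amount was sprayed evenly onto the soil surface. Plants grew in a greenhouse at 25° C. to 30° C., and the effect was scored three weeks after application using criteria from an earlier test.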

[8] = test system: green foxtail; test: Test Example 4: herbicidal effect by soil treatment (Table 19, symbol G); assay type: in vivo, green foxtail (Setaria viridis); details: amount of applied herbicide 320 g/ha
Procedure, shortened: as §3

[9] = test system: barnyard grass; test: Test Example 4: herbicidal effect by soil treatment (Table 19, symbol H); assay type: in vivo, barnyard grass (Echinochloa crus-galli); details: amount of applied herbicide 320 g/ha
Procedure, shortened: as §3

[10] = test system: wild oat; test: Test Example 4: herbicidal effect by soil treatment (Table 19, symbol I); assay type: in vivo, wild oat (Avena fatua); details: amount of applied herbicide 320 g/ha
Procedure, shortened: as §3

[11] = test system: blackgrass; test: Test Example 4: herbicidal effect by soil treatment (Table 19, symbol J); assay type: in vivo, blackgrass (Alopecurus myosuroides); details: amount of applied herbicide 320 g/ha
Procedure, shortened: as §3

[12] = test system: Italian ryegrass; test: Test Example 4: herbicidal effect by soil treatment (Table 19, symbol K); assay type: in vivo, Italian ryegrass (Lolium multiflorum); details: amount of applied herbicide 320 g/ha
Procedure, shortened: as §3

[13] = test system: windgrass; test: Test Example 4: herbicidal effect by soil treatment (Table 19, symbol L); assay type: in vivo, windgrass (Apera spica-venti); details: amount of applied herbicide 320 g/ha
Procedure, shortened: as §3

[14] = test system: velvetleaf; test: Test Example 4: herbicidal effect by soil treatment (Table 19, symbol M); assay type: in vivo, velvetleaf (Abutilon theophrasti); details: amount of applied herbicide 320 g/ha
Procedure, shortened: as §3

[15] = test system: redroot pigweed; test: Test Example 4: herbicidal effect by soil treatment (Table 19, symbol N); assay type: in vivo, redroot pigweed (Amaranthus retroflexus); details: amount of applied herbicide 320 g/ha
Procedure, shortened: as §3

[16] = test system: lambsquarters; test: Test Example 4: herbicidal effect by soil treatment (Table 19, symbol O); assay type: in vivo, lambsquarters (Chenopodium album); details: amount of applied herbicide 320 g/ha
Procedure, shortened: as §3

[17] = test system: chickweed; test: Test Example 4: herbicidal effect by soil treatment (Table 19, symbol P); assay type: in vivo, common chickweed (Stellaria media); details: amount of applied herbicide 320 g/ha
Procedure, shortened: as §3

[18] = test system: false cleavers; test: Test Example 4: herbicidal effect by soil treatment (Table 19, symbol Q); assay type: in vivo, false cleavers (Galium spurium); details: amount of applied herbicide 320 g/ha
Procedure, shortened: as §3

[19] = test system: persian speedwell; test: Test Example 4: herbicidal effect by soil treatment (Table 19, symbol R); assay type: in vivo, Persian speedwell (Veronica persica); details: amount of applied herbicide 320 g/ha
Procedure, shortened: as §3

[20] = test system: southern crabgrass; test: Test Example 5: herbicidal effect by foliage application, plastic box (Table 20, symbol F); assay type: in vivo, southern crabgrass (Digitaria ciliaris); details: foliage application, 320 g/ha, evaluated three weeks after application
Procedure, shortened: (§4)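 Plants sown in sterilized diluvial soil and grown 14 days in a greenhouse at 25° C to 30° C, then sprayed on the foliage with the compound's emulsion diluted in water to a predetermined herbicide amount. Injury to weeds and crops scored three weeks after application on a visual rating scale.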

[21] = test system: green foxtail; test: Test Example 5: herbicidal effect by foliage application, plastic box (Table 20, symbol G); assay type: in vivo, green foxtail (Setaria viridis); details: foliage application, 320 g/ha, evaluated three weeks after application
Procedure, shortened: as §4

[22] = test system: barnyard grass; test: Test Example 5: herbicidal effect by foliage application, plastic box (Table 20, symbol H); assay type: in vivo, barnyard grass (Echinochloa crus-galli); details: foliage application, 320 g/ha, evaluated three weeks after application
Procedure, shortened: as §4

[23] = test system: wild oat; test: Test Example 5: herbicidal effect by foliage application, plastic box (Table 20, symbol I); assay type: in vivo, wild oat (Avena fatua); details: foliage application, 320 g/ha, evaluated three weeks after application
Procedure, shortened: as §4

[24] = test system: blackgrass; test: Test Example 5: herbicidal effect by foliage application, plastic box (Table 20, symbol J); assay type: in vivo, blackgrass (Alopecurus myosuroides); details: foliage application, 320 g/ha, evaluated three weeks after application
Procedure, shortened: as §4

[25] = test system: Italian ryegrass; test: Test Example 5: herbicidal effect by foliage application, plastic box (Table 20, symbol K); assay type: in vivo, Italian ryegrass (Lolium multiflorum); details: foliage application, 320 g/ha, evaluated three weeks after application
Procedure, shortened: as §4

[26] = test system: windgrass; test: Test Example 5: herbicidal effect by foliage application, plastic box (Table 20, symbol L); assay type: in vivo, windgrass (Apera spica-venti); details: foliage application, 320 g/ha, evaluated three weeks after application
Procedure, shortened: as §4

[27] = test system: velvetleaf; test: Test Example 5: herbicidal effect by foliage application, plastic box (Table 20, symbol M); assay type: in vivo, velvetleaf (Abutilon theophrasti); details: foliage application, 320 g/ha, evaluated three weeks after application
Procedure, shortened: as §4

[28] = test system: redroot pigweed; test: Test Example 5: herbicidal effect by foliage application, plastic box (Table 20, symbol N); assay type: in vivo, redroot pigweed (Amaranthus retroflexus); details: foliage application, 320 g/ha, evaluated three weeks after application
Procedure, shortened: as §4

[29] = test system: lambsquarters; test: Test Example 5: herbicidal effect by foliage application, plastic box (Table 20, symbol O); assay type: in vivo, lambsquarters (Chenopodium album); details: foliage application, 320 g/ha, evaluated three weeks after application
Procedure, shortened: as §4

[30] = test system: chickweed; test: Test Example 5: herbicidal effect by foliage application, plastic box (Table 20, symbol P); assay type: in vivo, common chickweed (Stellaria media); details: foliage application, 320 g/ha, evaluated three weeks after application
Procedure, shortened: as §4

[31] = test system: false cleavers; test: Test Example 5: herbicidal effect by foliage application, plastic box (Table 20, symbol Q); assay type: in vivo, false cleavers (Galium spurium); details: foliage application, 320 g/ha, evaluated three weeks after application
Procedure, shortened: as §4

[32] = test system: persian speedwell; test: Test Example 5: herbicidal effect by foliage application, plastic box (Table 20, symbol R); assay type: in vivo, Persian speedwell (Veronica persica); details: foliage application, 320 g/ha, evaluated three weeks after application
Procedure, shortened: as §4

For `COc1ccc2sc(-c3ccccc3)c(-c3c(O)c(C)nn(C)c3=O)c2c1` [2-164], the “Herbicidal effect on A: late watergrass (grade 0-5)” value [1] was 3 (Herbicidal rate of 40% or more and less than 70%), the “Herbicidal effect on B: Japanese bulrush (grade 0-5)” value [2] was 0 (Herbicidal rate of 5% or less (almost no effect)) and the “Herbicidal effect on C: oval-leafed pondweed (grade 0-5)” value [3] was 0 (Herbicidal rate of 5% or less (almost no effect)). The “herbicidal effect on H: barnyard grass” value [4] was 2 (Herbicidal rate of 20% or more and less than 40%), the “herbicidal effect on D: Chinese sprangletop” value [5] was 3 (Herbicidal rate of 40% or more and less than 70%) and the “herbicidal effect on E: rice flat sedge” value [6] was 4 (Herbicidal rate of 70% or more and less than 90%). For the same compound, the “F: southern crabgrass, herbicidal effect rating” value [7] was 4 (Herbicidal rate of 70% or more and less than 90%), the “G: green foxtail, herbicidal effect rating” value [8] was 5 (Herbicidal rate of 90% or more (almost completely withered)) and the “H: barnyard grass, herbicidal effect rating” value [9] was 2 (Herbicidal rate of 20% or more and less than 40%). For the same compound, the “I: wild oat, herbicidal effect rating” value [10] was 1 (Herbicidal rate of 5% or more and less than 20%), the “J: blackgrass, herbicidal effect rating” value [11] was 0 (Herbicidal rate of 5% or less (almost no effect)) and the “K: Italian ryegrass, herbicidal effect rating” value [12] was 2 (Herbicidal rate of 20% or more and less than 40%). For the same compound, the “L: windgrass, herbicidal effect rating” value [13] was 3 (Herbicidal rate of 40% or more and less than 70%), the “M: velvetleaf, herbicidal effect rating” value [14] was 0 (Herbicidal rate of 5% or less (almost no effect)) and the “N: redroot pigweed, herbicidal effect rating” value [15] was 4 (Herbicidal rate of 70% or more and less than 90%). For the same compound, the “O: lambsquarters, herbicidal effect rating” value [16] was 4 (Herbicidal rate of 70% or more and less than 90%), the “P: chickweed, herbicidal effect rating” value [17] was 5 (Herbicidal rate of 90% or more (almost completely withered)) and the “Q: false cleavers, herbicidal effect rating” value [18] was 2 (Herbicidal rate of 20% or more and less than 40%). The “R: persian speedwell, herbicidal effect rating” value [19] was 4 (Herbicidal rate of 70% or more and less than 90%), the “herbicidal effect on F: southern crabgrass (criteria 0-5)” value [20] was 4 (Herbicidal rate of 70% or more and less than 90%) and the “herbicidal effect on G: green foxtail (criteria 0-5)” value [21] was 5 (Herbicidal rate of 90% or more (almost completely withered)). For the same compound, the “herbicidal effect on H: barnyard grass (criteria 0-5)” value [22] was 1 (Herbicidal rate of 5% or more and less than 20%), the “herbicidal effect on I: wild oat (criteria 0-5)” value [23] was 4 (Herbicidal rate of 70% or more and less than 90%) and the “herbicidal effect on J: blackgrass (criteria 0-5)” value [24] was 3 (Herbicidal rate of 40% or more and less than 70%). The “herbicidal effect on K: Italian ryegrass (criteria 0-5)” value [25] was 4 (Herbicidal rate of 70% or more and less than 90%), the “herbicidal effect on L: windgrass (criteria 0-5)” value [26] was 5 (Herbicidal rate of 90% or more (almost completely withered)) and the “herbicidal effect on M: velvetleaf (criteria 0-5)” value [27] was 3 (Herbicidal rate of 40% or more and less than 70%). The “herbicidal effect on N: redroot pigweed (criteria 0-5)” value [28] was 5 (Herbicidal rate of 90% or more (almost completely withered)), the “herbicidal effect on O: lambsquarters (criteria 0-5)” value [29] was 3 (Herbicidal rate of 40% or more and less than 70%) and the “herbicidal effect on P: chickweed (criteria 0-5)” value [30] was 5 (Herbicidal rate of 90% or more (almost completely withered)). The “herbicidal effect on Q: false cleavers (criteria 0-5)” value [31] was 5 (Herbicidal rate of 90% or more (almost completely withered)) and the “herbicidal effect on R: persian speedwell (criteria 0-5)” value [32] was 5 (Herbicidal rate of 90% or more (almost completely withered)).

— US20230085307A1, “PYRIDAZINONE COMPOUND AND HERBICIDE” (NISSAN CHEMICAL CORPORATION, priority 2019, published 2023)
